Experimental data as given in paper PMC11213733, “Computational approaches identify a transcriptomic fingerprint of drug-induced structural cardiotoxicity” (Cell Biology and Toxicology, 2024).
Structures can show the parent of a compound that is named as a salt.

Legend:
cardiac microtissues [1] = assay: Ingenuity Pathway Analysis over-representation of differentially expressed genes (activation Z-score); type: cell-based, human; settings: 48hr high; Group 1
[2] = ref FDA label, cited from earlier work; for Structural cardiotoxin?: FDA label references heart failure or a decrease in left ventricular ejection fraction; for Functional cardiotoxin?: compound annotation
cardiac microtissues [3] = assay: Transcriptomic profiling (mRNA-seq) and DESeq2 differential gene expression analysis in cardiac microtissues; settings: absolute log2(Fold-Change) > 1, FDR p ≤ 0.05; for number of significant differentially expressed genes, 6hr high / number of significant differentially expressed genes, 48hr high / number of significant differentially expressed genes, 72hr high: high concentration; for number of significant differentially expressed genes, 6hr low / number of significant differentially expressed genes, 48hr low / number of significant differentially expressed genes, 72hr low: low concentration

In the case of C#Cc1cccc(Nc2ncnc3cc(OCCOC)c(OCCOC)cc23)c1 [Erlotinib], the “activation Z-score: Cardiac Hypertrophy Signaling” value (cardiac microtissues [1]) was -2.236, the “activation Z-score: Cell Cycle Control of Chromosomal Replication” value (shortened to “activation Z-score: Cell Cycle Control”) (cardiac microtissues [1]) was -3.742 and the “activation Z-score: Cell Cycle Regulation by BTG Family Proteins” value (from here on “activation Z-score … by BTG Family Proteins”) (cardiac microtissues [1]) was -2. The “activation Z-score: Cyclins and Cell Cycle Regulation” value (cardiac microtissues [1]) was -2.111, the “activation Z-score: D-myo-inositol-5-phosphate Metabolism” value (cardiac microtissues [1]) was -2.449 and the “activation Z-score: DNA Methylation and Transcriptional Repression Signaling” value (cardiac microtissues [1]) was -2.646. The “activation Z-score: Estrogen-mediated S-phase Entry” value (cardiac microtissues [1]) was -2.121, the “activation Z-score: Factors Promoting Cardiogenesis in Vertebrates” value (cardiac microtissues [1]) was -0.816 and the “activation Z-score: G-Protein Coupled Receptor Signaling” value (cardiac microtissues [1]) was -2.357. The “activation Z-score: GP6 Signaling Pathway” value (cardiac microtissues [1]) was -1.633, the “activation Z-score: Glioma Invasiveness Signaling” value (cardiac microtissues [1]) was -2 and the “activation Z-score: HIF1Î± Signaling” value (cardiac microtissues [1]) was -2.121. The “activation Z-score: HMGB1 Signaling” value (cardiac microtissues [1]) was -2.236, the “activation Z-score: Hepatic Fibrosis Signaling Pathway” value (cardiac microtissues [1]) was -2.138 and the “activation Z-score: ILK Signaling” value (cardiac microtissues [1]) was -1.134. The “activation Z-score: Insulin Secretion Signaling Pathway” value (cardiac microtissues [1]) was -2.121, the “activation Z-score: Integrin Signaling” value (cardiac microtissues [1]) was -2.449 and the “activation Z-score: Kinetochore Metaphase Signaling Pathway” value (cardiac microtissues [1]) was -3.402. For the same molecule, the “activation Z-score: Mitotic Roles of Polo-Like Kinase” value (from here on “activation Z-score: Mitotic Roles”) (cardiac microtissues [1]) was -2.309, the “activation Z-score: Protein Kinase A Signaling” value (cardiac microtissues [1]) was -1.155 and the “activation Z-score: Pyridoxal 5'-phosphate Salvage Pathway” value (cardiac microtissues [1]) was -2.646. For the same molecule, the “activation Z-score: RHOGDI Signaling” value (cardiac microtissues [1]) was 1.89, the “activation Z-score: Regulation Of The Epithelial Mesenchymal Transition By Growth Factors Pathway” value (cardiac microtissues [1]) was -2.449 and the “activation Z-score: Role of NFAT in Cardiac Hypertrophy” value (cardiac microtissues [1]) was -2. For the same molecule, the “activation Z-score: Salvage Pathways of Pyrimidine Ribonucleotides” value (from here on “activation Z-score: Salvage Pathways”) (cardiac microtissues [1]) was -2.828, the “activation Z-score: Senescence Pathway” value (cardiac microtissues [1]) was 0.728 and the “activation Z-score: Sphingosine-1-phosphate Signaling” value (cardiac microtissues [1]) was -2. For the same molecule, the “activation Z-score: Superpathway of Inositol Phosphate Compounds” value (“activation Z-score: Superpathway” for short) (cardiac microtissues [1]) was -2.449, the “activation Z-score: Thrombin Signaling” value (cardiac microtissues [1]) was -2.236 and the “activation Z-score: White Adipose Tissue Browning Pathway” value (cardiac microtissues [1]) was -1.633. For the same molecule, the “activation Z-score: Wound Healing Signaling Pathway” value (cardiac microtissues [1]) was -2.111, the “activation Z-score: cAMP-mediated signaling” value (cardiac microtissues [1]) was -1.633 and the “activation Z-score: tRNA Charging” value (cardiac microtissues [1]) was 2.646. For the same molecule, the “Structural cardiotoxin?” value [2] was “N”, the “Functional cardiotoxin?” value [2] was “Y” and the “number of significant differentially expressed genes, 6hr high” value (cardiac microtissues [3]) was 56. The “number of significant differentially expressed genes, 6hr low” value (cardiac microtissues [3]) was 39, the “number of significant differentially expressed genes, 48hr high” value (cardiac microtissues [3]) was 634 and the “number of significant differentially expressed genes, 48hr low” value (cardiac microtissues [3]) was 152. The “number of significant differentially expressed genes, 72hr high” value (cardiac microtissues [3]) was 283 and the “number of significant differentially expressed genes, 72hr low” value (cardiac microtissues [3]) was 78.

With O=c1[nH]cc(F)c(=O)[nH]1 [Fluorouracil] the “activation Z-score: BER (Base Excision Repair) Pathway” value (cardiac microtissues [1]) was -2.236, the “activation Z-score: Cell Cycle Control” value (cardiac microtissues [1]) was -4.359 and the “activation Z-score … by BTG Family Proteins” value (cardiac microtissues [1]) was -1.342. For the same molecule, the “activation Z-score: Cyclins and Cell Cycle Regulation” value (cardiac microtissues [1]) was -2.714, the “activation Z-score: DNA Methylation and Transcriptional Repression Signaling” value (cardiac microtissues [1]) was -1.414 and the “activation Z-score: Estrogen-mediated S-phase Entry” value (cardiac microtissues [1]) was -2.333. For the same molecule, the “activation Z-score: G-Protein Coupled Receptor Signaling” value (cardiac microtissues [1]) was -1, the “activation Z-score: Kinetochore Metaphase Signaling Pathway” value (cardiac microtissues [1]) was -3.772 and the “activation Z-score: Mismatch Repair in Eukaryotes” value (cardiac microtissues [1]) was -2. For the same molecule, the “activation Z-score: Mitotic Roles” value (cardiac microtissues [1]) was -2.309, the “activation Z-score: NER (Nucleotide Excision Repair, Enhanced Pathway)” value (cardiac microtissues [1]) was -1.414 and the “activation Z-score: Protein Kinase A Signaling” value (cardiac microtissues [1]) was 2. The “activation Z-score: Pyridoxal 5'-phosphate Salvage Pathway” value (cardiac microtissues [1]) was -1.89, the “activation Z-score: RHOGDI Signaling” value (cardiac microtissues [1]) was 2 and the “activation Z-score: Salvage Pathways” value (cardiac microtissues [1]) was -2.121. The “activation Z-score: Senescence Pathway” value (cardiac microtissues [1]) was 2.324, the “activation Z-score: Superpathway” value (cardiac microtissues [1]) was -0.447 and the “Structural cardiotoxin?” value [2] was “Y”. The “Functional cardiotoxin?” value [2] was “Y”, the “number of significant differentially expressed genes, 6hr high” value (cardiac microtissues [3]) was 0 and the “number of significant differentially expressed genes, 6hr low” value (cardiac microtissues [3]) was 0. The “number of significant differentially expressed genes, 48hr high” value (cardiac microtissues [3]) was 401, the “number of significant differentially expressed genes, 48hr low” value (cardiac microtissues [3]) was 1 and the “number of significant differentially expressed genes, 72hr high” value (cardiac microtissues [3]) was 366. For the same molecule, the “number of significant differentially expressed genes, 72hr low” value (cardiac microtissues [3]) was 200.

For CC(=O)[C@]1(O)Cc2c(O)c3c(c(O)c2[C@@H](O[C@H]2C[C@H](N)[C@H](O)[C@H](C)O2)C1)C(=O)c1ccccc1C3=O [Idarubicin HCl], the “activation Z-score: Acute Phase Response Signaling” value (cardiac microtissues [1]) was -0.816, the “activation Z-score: Apelin Liver Signaling Pathway” value (cardiac microtissues [1]) was -0.707 and the “activation Z-score: BER (Base Excision Repair) Pathway” value (cardiac microtissues [1]) was -2.333. For the same molecule, the “activation Z-score: Cardiac Hypertrophy Signaling” value (cardiac microtissues [1]) was -1.732, the “activation Z-score: Cardiomyocyte Differentiation via BMP Receptors” value (cardiac microtissues [1]) was -2.236 and the “activation Z-score: Cell Cycle Control” value (cardiac microtissues [1]) was -3.71. For the same molecule, the “activation Z-score … by BTG Family Proteins” value (cardiac microtissues [1]) was -1.342, the “activation Z-score: Cyclins and Cell Cycle Regulation” value (cardiac microtissues [1]) was -1.941 and the “activation Z-score: D-myo-inositol-5-phosphate Metabolism” value (cardiac microtissues [1]) was 0.258. The “activation Z-score: DNA Methylation and Transcriptional Repression Signaling” value (cardiac microtissues [1]) was -0.535, the “activation Z-score: Estrogen-mediated S-phase Entry” value (cardiac microtissues [1]) was -1.897 and the “activation Z-score: Factors Promoting Cardiogenesis in Vertebrates” value (cardiac microtissues [1]) was -2.117. For the same molecule, the “activation Z-score: G-Protein Coupled Receptor Signaling” value (cardiac microtissues [1]) was 0.53, the “activation Z-score: GP6 Signaling Pathway” value (cardiac microtissues [1]) was 0.378 and the “activation Z-score: Glioma Invasiveness Signaling” value (cardiac microtissues [1]) was -0.632. For the same molecule, the “activation Z-score: HIF1Î± Signaling” value (cardiac microtissues [1]) was 0.209, the “activation Z-score: HMGB1 Signaling” value (cardiac microtissues [1]) was -0.577 and the “activation Z-score: Hepatic Fibrosis Signaling Pathway” value (cardiac microtissues [1]) was -1.508. The “activation Z-score: ILK Signaling” value (cardiac microtissues [1]) was -3, the “activation Z-score: Insulin Secretion Signaling Pathway” value (cardiac microtissues [1]) was -0.192 and the “activation Z-score: Integrin Signaling” value (cardiac microtissues [1]) was -1.877. For the same molecule, the “activation Z-score: Kinetochore Metaphase Signaling Pathway” value (cardiac microtissues [1]) was -2.556, the “activation Z-score: Mismatch Repair in Eukaryotes” value (cardiac microtissues [1]) was -2.333 and the “activation Z-score: Mitotic Roles” value (cardiac microtissues [1]) was -1.604. For the same molecule, the “activation Z-score: NER (Nucleotide Excision Repair, Enhanced Pathway)” value (cardiac microtissues [1]) was -2.183, the “activation Z-score: Nitric Oxide Signaling in the Cardiovascular System” value (cardiac microtissues [1]) was 0.775 and the “activation Z-score: Protein Kinase A Signaling” value (cardiac microtissues [1]) was 0.302. The “activation Z-score: Pyridoxal 5'-phosphate Salvage Pathway” value (cardiac microtissues [1]) was -1, the “activation Z-score: RHOGDI Signaling” value (cardiac microtissues [1]) was 0.816 and the “activation Z-score: Regulation Of The Epithelial Mesenchymal Transition By Growth Factors Pathway” value (cardiac microtissues [1]) was -1.147. For the same molecule, the “activation Z-score: Role of NFAT in Cardiac Hypertrophy” value (cardiac microtissues [1]) was -1.512, the “activation Z-score: SPINK1 General Cancer Pathway” value (cardiac microtissues [1]) was 2.333 and the “activation Z-score: Salvage Pathways” value (cardiac microtissues [1]) was -1. The “activation Z-score: Senescence Pathway” value (cardiac microtissues [1]) was 1.768, the “activation Z-score: Sphingosine-1-phosphate Signaling” value (cardiac microtissues [1]) was 0 and the “activation Z-score: Superpathway” value (cardiac microtissues [1]) was 0.894. For the same molecule, the “activation Z-score: Thrombin Signaling” value (cardiac microtissues [1]) was -0.471, the “activation Z-score: White Adipose Tissue Browning Pathway” value (cardiac microtissues [1]) was -2.449 and the “activation Z-score: Wound Healing Signaling Pathway” value (cardiac microtissues [1]) was -0.164. For the same molecule, the “activation Z-score: cAMP-mediated signaling” value (cardiac microtissues [1]) was 0, the “Structural cardiotoxin?” value [2] was “Y” and the “Functional cardiotoxin?” value [2] was “Y”. For the same molecule, the “number of significant differentially expressed genes, 6hr high” value (cardiac microtissues [3]) was 24, the “number of significant differentially expressed genes, 6hr low” value (cardiac microtissues [3]) was 12 and the “number of significant differentially expressed genes, 48hr high” value (cardiac microtissues [3]) was 2838. For the same molecule, the “number of significant differentially expressed genes, 48hr low” value (cardiac microtissues [3]) was 578, the “number of significant differentially expressed genes, 72hr high” value (cardiac microtissues [3]) was 1616 and the “number of significant differentially expressed genes, 72hr low” value (cardiac microtissues [3]) was 864.
